This note sets out measurements from PMC12693135, “Ocular Toxicity and Mechanistic Investigation for Berberine and Its Metabolite Berberrubine on Zebrafish” (Molecules, 2025).

SMILES strings stand for the structures.

Series [1] relates to wild-type AB strain zebrafish. The experiment in a line: Determination of ATP and ROS levels in zebrafish larvae. It counts as in vivo, zebrafish (Danio rerio). The conditions noted are these: BBR 25 or 50 μM, M1 100 or 200 μM, 5 dpf; for ROS levels: relative to control. The method, then:
Wild-type AB strain zebrafish (6 hpf) were treated with BBR (25 or 50 μM), M1 (100 or 200 μM), or 0.05% DMSO (control) until 5 dpf, with 30 larvae per treatment and three biological replicates (total 90 larvae per group). Subsequently, 3 larvae were pooled per sample (10 samples per group) and the entire zebrafish was transferred directly into a 96-well plate for fluorescence detection. Cellular ATP content was determined using the CellTiter-Glo® Luminescent Cell Viability Assay Kit (Promega, Madison, WI, USA), which relies on a bioluminescent principle (luciferase-luciferin reaction). Cellular ROS levels were measured using CM-H2DCFDA kits (Invitrogen, Carlsbad, CA, USA), based on the oxidation of non-fluorescent CM-H2DCFDA to fluorescent DCF by ROS. Reagents were prepared and reactions were performed according to the manufacturers’ instructions, with luminescence detected using a Spark multifunctional microplate reader (Tecan, Grödig, Austria).

Series [2] concerns wild-type AB strain zebrafish larvae. The series is described as follows: Zebrafish visual motor response (locomotor behavior, dark/light). Type of series: in vivo, zebrafish (Danio rerio). The following applies: for swimming pattern (trajectories) upon light stimulation: first 30 s of light stimulation, compared to controls. The method, then:
Wild-type larvae (6 hpf, 30 per group) were incubated with BBR at the concentrations of 20, 50, 100, and 200 µM or M1 at the concentrations of 20, 50, 100, 200, 400, and 625 µM for 5 days. At 120 hpf, larvae were tested in a 96-well plate (1 larva/well, 12 per group). After 10 min acclimation, light-dark transition tests were performed (5 min dark to 5 min light, repeated 3 times), with recordings every 1 min for 40 min. The trajectory and 1 min movement distance were recorded by Behavioral Tracking System: Daniovision, Zebralab 3.3 (ViewPoint, Civrieux, France). Data were processed in Excel (Microsoft, Redmond, WA, USA). Metrics included 1 min total distance, movement time, and average speed. Averages of 12 larvae per group were used for bar graphs; comparisons with the control group were analyzed via t-test. The experiment was conducted three times in parallel.

For series [3], the system named is mitochondrial complex I (NADH dehydrogenase). The experiment in a line: Mitochondrial complex I activity assay in treated zebrafish larvae. Type of series: in vivo, zebrafish (Danio rerio). The conditions noted are these: BBR 25 or 50 μM, M1 100 or 200 μM, 5 dpf. The method, then: Wild-type AB strain zebrafish (6 hpf) were treated with BBR (25 or 50 μM), M1 (100 or 200 μM), or 0.05% DMSO (control) until 5 dpf, with 9 larvae per treatment and three biological replicates ([…]). Three zebrafish larvae were harvested per group (3 samples per group) and homogenized on ice following the protocol of the Mitochondrial Respiratory Chain Complex I Activity Assay Kit (Solabor, Beijing, China). Briefly, cell homogenates were centrifuged at 600× g for 5 min at 4 °C, and the supernatants were transferred to new microcentrifuge tubes. The samples were then centrifuged again at 11,000× g for 10 min at 4 °C; the precipitates (containing mitochondria) were used for the complex I activity assay. These precipitates were subjected to ultrasonication in the appropriate reaction buffer, and reactions were set up according to the protocol. After mixing, the OD340 values at time 0 (OD1) and at 2 min (OD2) were recorded using a Synergy H1 multifunctional microplate reader (Biotek, Winooski, VT, USA). The ΔOD value was calculated by subtracting OD2 from OD1. Mitochondrial complex I activity was calculated according to the formula provided in the protocol and expressed as units per mg of sample protein.

Series [4] can be described thus: Zebrafish embryonic developmental toxicity (mortality, LC50). Also noted: species or system zebrafish (Danio rerio). The following applies: wild-type AB, in vivo, exposure from 6 hpf, mortality at 5 dpf, read-out: LC50 (half-lethal concentration).
Description: First, the half-lethal concentration (LC50) values of berberine (BBR) and berberrubine (M1) in zebrafish were calculated. Wild-type AB strain zebrafish embryos staged at 6 h post-fertilization (hpf), corresponding to the 50% epiboly stage, were exposed to BBR or M1 at different concentrations. Mortality was recorded via stereomicroscopy at 5 days post-fertilization (5 dpf).
Embryos at 6 hpf (50% epiboly stage) were grouped and exposed to incubation solutions of berberine (BBR) at concentrations of 20, 50, 100, 200, and 400 µM, or M1 at concentrations of 20, 50, 100, 200, 400, and 625 µM, until 5 dpf. The control group was treated with 0.05% DMSO in saline. All experiments were performed in three biological replicates; unless otherwise specified, each replicate included 30 larvae per treatment, resulting in a total of 90 larvae per treatment.
Wild-typed AB strain zebrafish embryos at the 6 h post-fertilization stage (6 hpf) were grouped (30 fishes per group), and BBR at the concentrations of 20, 50, 100 and 200 µM or M1 at the concentrations of 20, 50, 100, 200, 400 and 625 µM were administered by microinjection, taking 0.05% DMSO in saline as the control. The mortality was recorded everyday by SZX2 stereomicroscopy (Olympus, Hachioji-shi, Japan) until 5 dpf. Dead embryos were recorded and discarded every 24 h. […]
The test system of series [5] is zebrafish larvae eye. The series is described as follows: Zebrafish eye length and area experiment. It counts as in vivo, zebrafish (Danio rerio). The conditions noted are these: zebrafish larvae at 5 dpf vs 0.05% DMSO control; BBR 20-200 µM, M1 20-625 µM. The method, then:
Half of the epiboly embryos (6 hpf under standard conditions) were exposed to solutions (2 mL) of BBR at the concentrations of 20, 50, 100, and 200 µM or M1 at the concentrations of 20, 50, 100, 200, 400, and 625 µM and cultured under standard conditions, taking 0.05% DMSO in saline as the control. The experiment was performed three times using 30 embryos per concentration (n = 90 per group in total). At 5 dpf, embryos were washed 3× with normal medium, transferred to fresh medium, and photographed by E3ISPM20000KPA digital camera (ToupTek, Hangzhou, China), with the magnification of 10–40× and exposure time of 200–500 ms. Then the eye length and area were measured and analyzed using Image J V2.1.X (NIH, Bethesda, MD, USA). Data (eye length/area) were expressed as mean ± SD, compared with the control group, and plotted.

For series [6], the system named is transgenic mitochondrial fluorescent zebrafish (strain Tg(Xla.Eef1a1:mlsEGFP)). The series is described as follows: Fluorescence microscopy for mitochondrial function. The conditions noted are these: 5-dpf larvae; BBR 25 or 50 μM, M1 100 or 200 μM. It counts as in vivo, zebrafish (Danio rerio). The method, then: Strain Tg(Xla.Eef1a1:mlsEGFP) zebrafish larvae (6 hpf) were treated with BBR (25 or 50 μM), M1 (100 or 200 μM), or 0.05% DMSO (control) until 5 dpf, with 30 larvae per treatment and three biological replicates (total 90 larvae per group). Then, 10 larvae were randomly selected from each experimental group and imaged using a motorized-focus continuous-zoom fluorescence microscope AZ100 (Nikon, Japan) with the magnification of 10–40× and exposure time of 200–500 ms. The fluorescence intensity of ocular apoptotic cells in zebrafish larvae and mitochondria throughout the zebrafish were measured and analyzed using NIS-Elements (Nikon Imaging Software, Nikon, Japan). The experiment was conducted three times in parallel.

Regarding `COc1ccc2cc3[n+](cc2c1OC)CCc1cc2c(cc1-3)OCO2` [BBR, berberine], in series [1], the “intracellular ATP levels” value is “significantly reduced”; the ROS levels result was “marked and dose-dependent increase”. The “average swimming speed, dark conditions” value in series [2] (dark, 200 μM) is reported as “decreased average speed”. Besides, the “swimming distance and duration, dark conditions” value in series [2] (dark, concentrations above 100 μM) is reported as “significantly reduced”. Further, the “swimming pattern (trajectories) upon light stimulation” value in series [2] is “irregular and disorganized swimming patterns”. Besides, in series [2] (light stimulation, 200 μM), the “locomotor metrics (distance, time, speed) upon light stimulation” value is recorded as “significant reductions in all three locomotor metrics”. For the same compound, the “mitochondrial complex I activity” value in series [3] is on record as “dose-dependently suppressed”. Further, the LC50 in series [4] is 167 µM. Besides, the “eye length and eye area” value in series [5] is “significantly and dose-dependently reduced”. The mitochondrial density result in series [6] was “decrease in the mitochondrial density”.

For the compound `COc1ccc2cc3[n+](cc2c1O)CCc1cc2c(cc1-3)OCO2` [M1, berberrubine], in series [1], the “intracellular ATP levels” value was “significantly reduced”; the ROS levels result is “marked and dose-dependent increase”. Moreover, the average swimming distance entry in series [2] (625 μM) is given as “reduced average swimming distance”. The swimming duration result in series [2] (concentrations above 200 μM) was “decreased swimming duration”. In addition, the “locomotion in the dark” value in series [2] (dark, 20-625 µM) is “did not affect locomotion in the dark”. Moreover, the “swimming pattern (trajectories) upon light stimulation” value in series [2] was “irregular and disorganized swimming patterns”. The “mitochondrial complex I activity” value in series [3] was “marked, dose-dependent decrease”. For the same compound, the LC50 in series [4] stood at 558 µM. The “eye length and eye area” value in series [5] was “significantly and dose-dependently reduced”. Moreover, the mitochondrial density entry in series [6] is recorded as “decrease in the mitochondrial density”.
